Reference: patent US7803769B2 (priority 2006, dated 2010)
Bridge positions count the residues as written; N and C are the ends. Square brackets hold non-standard residues; d marks the D form. Peptide text beside a SMILES is read from it. 1Nal = N[C@@H](Cc1cccc2ccccc12)C(=O)O

Key:
human Kv1.3 (CHO) = target: T1, human Kv1.3 (CHO) (Homo sapiens, UniProt P22001); test: cell-based
T1 construct: expressed in transfected cells

human Kv1.1 (HEK293) = target: T2, human Kv1.1 (HEK293) (Homo sapiens, UniProt Q09470); test: cell-based
T2 construct: expressed in transfected cells; host or cells: HEK293
T2 sequence (Q09470 whole entry): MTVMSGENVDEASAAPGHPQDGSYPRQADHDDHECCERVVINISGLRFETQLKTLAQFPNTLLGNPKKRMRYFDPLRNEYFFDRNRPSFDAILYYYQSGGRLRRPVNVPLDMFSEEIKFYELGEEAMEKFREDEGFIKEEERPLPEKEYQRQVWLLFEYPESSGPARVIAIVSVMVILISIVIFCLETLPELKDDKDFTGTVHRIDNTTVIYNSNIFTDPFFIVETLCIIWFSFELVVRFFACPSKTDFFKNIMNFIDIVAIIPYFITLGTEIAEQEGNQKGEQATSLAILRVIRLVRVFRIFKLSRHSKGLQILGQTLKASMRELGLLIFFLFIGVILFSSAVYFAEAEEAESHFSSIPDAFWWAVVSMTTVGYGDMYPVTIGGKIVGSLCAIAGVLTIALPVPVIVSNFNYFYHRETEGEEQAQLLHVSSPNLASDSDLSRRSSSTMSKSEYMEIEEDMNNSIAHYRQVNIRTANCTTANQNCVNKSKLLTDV

T1 sequence (P22001 whole entry): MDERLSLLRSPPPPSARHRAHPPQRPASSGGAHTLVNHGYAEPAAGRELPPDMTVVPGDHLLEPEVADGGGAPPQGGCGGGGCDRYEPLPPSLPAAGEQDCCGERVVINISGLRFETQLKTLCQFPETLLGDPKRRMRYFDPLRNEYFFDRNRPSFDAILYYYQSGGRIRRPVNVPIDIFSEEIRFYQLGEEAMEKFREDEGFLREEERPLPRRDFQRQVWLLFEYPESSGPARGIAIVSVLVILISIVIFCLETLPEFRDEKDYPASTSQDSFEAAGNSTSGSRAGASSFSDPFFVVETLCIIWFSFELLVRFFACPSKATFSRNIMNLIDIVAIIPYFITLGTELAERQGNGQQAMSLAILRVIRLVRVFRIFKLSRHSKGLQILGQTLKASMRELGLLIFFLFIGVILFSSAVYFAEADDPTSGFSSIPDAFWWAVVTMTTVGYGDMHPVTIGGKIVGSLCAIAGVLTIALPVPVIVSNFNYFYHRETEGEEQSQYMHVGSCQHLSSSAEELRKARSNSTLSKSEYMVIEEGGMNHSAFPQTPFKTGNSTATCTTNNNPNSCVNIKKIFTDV

| SMILES | IC50 (human Kv1.3 (CHO)) | IC50 (human Kv1.1 (HEK293)) |
| --- | --- | --- |
| CC[C@H](C)[C@@H]1NC(=O)[C@H](CCCCN)NC(=O)[C@@H](NC(=O)[C@H](CCCCN)NC(=O)[C@@H](NC(=O)[C@H](CC(N)=O)NC(=O)[C@@H](NC(=O)[C@@H](NC(=O)[C@H](Cc2cccc3ccccc23)NC(=O)CN)[C@@H](C)CC)[C@@H](C)CC)C(C)C)CSSC[C@@H]2NC(=O)[C@H](CCCCN)NC(=O)CNC(=O)[C@H](Cc3ccccc3)NC(=O)[C@H](CCCNC(=N)N)NC(=O)[C@H](CCSC)NC(=O)CNC(=O)[C@H](C)NC(=O)[C@H](CCCCN)NC(=O)[C@H](CCCCN)NC(=O)[C@@H]3CSSC[C@@H](C(=O)N[C@H](C(=O)N4CCC[C@H]4C(=O)N[C@@H](CCCCN)C(=O)O)[C@@H](C)O)NC(=O)[C@H](Cc4c[nH]cn4)NC(=O)[C@H](CSSC[C@H](NC(=O)[C@H](CCC(N)=O)NC(=O)[C@H](CCCNC(=N)N)NC(=O)[C@H](CO)NC1=O)C(=O)N[C@@H](CC(C)C)C(=O)N[C@@H](CCC(=O)O)C(=O)N1CCC[C@H]1C(=O)N3)NC(=O)[C@H](CCCCN)NC(=O)CNC(=O)[C@H](CC(N)=O)NC(=O)[C@H](CCSC)NC2=O [V2Nal] (H-G[1Nal]IINVKCKISRQCLEPCKKAGMRFGKCMNGKCHCTPK-OH; disulfide 8-28, 14-33, 18-35) | 0.0116 nM | 0.00246 nM |
| CC[C@H](C)[C@@H]1NC(=O)[C@H](CCCCN)NC(=O)[C@@H](NC(=O)[C@H](CCCCN)NC(=O)[C@@H](NC(=O)[C@H](CC(N)=O)NC(=O)[C@@H](NC(=O)[C@@H](NC(=O)[C@@H](NC(=O)CN)C(C)C)[C@@H](C)CC)[C@@H](C)CC)C(C)C)CSSC[C@@H]2NC(=O)[C@H](CCCCN)NC(=O)CNC(=O)[C@H](Cc3ccccc3)NC(=O)[C@H](CCCNC(=N)N)NC(=O)[C@H](CCSC)NC(=O)[C@H](Cc3cccc4ccccc34)NC(=O)[C@H](C)NC(=O)[C@H](CCCCN)NC(=O)[C@H](CCCCN)NC(=O)[C@@H]3CSSC[C@@H](C(=O)N[C@H](C(=O)N4CCC[C@H]4C(=O)N[C@@H](CCCCN)C(=O)O)[C@@H](C)O)NC(=O)[C@H](Cc4c[nH]cn4)NC(=O)[C@H](CSSC[C@H](NC(=O)[C@H](CCC(N)=O)NC(=O)[C@H](CCCNC(=N)N)NC(=O)[C@H](CO)NC1=O)C(=O)N[C@@H](CC(C)C)C(=O)N[C@@H](CCC(=O)O)C(=O)N1CCC[C@H]1C(=O)N3)NC(=O)[C@H](CCCCN)NC(=O)CNC(=O)[C@H](CC(N)=O)NC(=O)[C@H](CCSC)NC2=O [G22Nal] (H-GVIINVKCKISRQCLEPCKKA[1Nal]MRFGKCMNGKCHCTPK-OH; disulfide 8-28, 14-33, 18-35) | > 3.33 nM | 0.426 nM |
| CC[C@H](C)[C@@H]1NC(=O)[C@H](CCCCN)NC(=O)[C@@H](NC(=O)[C@H](CCCCN)NC(=O)[C@@H](NC(=O)[C@H](CC(N)=O)NC(=O)[C@@H](NC(=O)[C@@H](NC(=O)[C@@H](NC(=O)CN)C(C)C)[C@@H](C)CC)[C@@H](C)CC)C(C)C)CSSC[C@@H]2NC(=O)[C@H](CCCCN)NC(=O)CNC(=O)[C@H](Cc3ccccc3)NC(=O)[C@H](CCCNC(=N)N)NC(=O)[C@H](CCSC)NC(=O)CNC(=O)[C@H](C)NC(=O)[C@H](Cc3cccc4ccccc34)NC(=O)[C@H](CCCCN)NC(=O)[C@@H]3CSSC[C@@H](C(=O)N[C@H](C(=O)N4CCC[C@H]4C(=O)N[C@@H](CCCCN)C(=O)O)[C@@H](C)O)NC(=O)[C@H](Cc4c[nH]cn4)NC(=O)[C@H](CSSC[C@H](NC(=O)[C@H](CCC(N)=O)NC(=O)[C@H](CCCNC(=N)N)NC(=O)[C@H](CO)NC1=O)C(=O)N[C@@H](CC(C)C)C(=O)N[C@@H](CCC(=O)O)C(=O)N1CCC[C@H]1C(=O)N3)NC(=O)[C@H](CCCCN)NC(=O)CNC(=O)[C@H](CC(N)=O)NC(=O)[C@H](CCSC)NC2=O [K20Nal] (H-GVIINVKCKISRQCLEPCK[1Nal]AGMRFGKCMNGKCHCTPK-OH; disulfide 8-28, 14-33, 18-35) | 0.0135 nM | < 0.00152 nM |
| CC[C@H](C)[C@@H]1NC(=O)[C@H](CCCCN)NC(=O)[C@@H](NC(=O)[C@H](CCCCN)NC(=O)[C@@H](NC(=O)[C@H](CC(N)=O)NC(=O)[C@@H](NC(=O)[C@@H](NC(=O)[C@@H](NC(=O)CN)C(C)C)[C@@H](C)CC)[C@@H](C)CC)C(C)C)CSSC[C@@H]2NC(=O)[C@H](CCCCN)NC(=O)CNC(=O)[C@H](Cc3ccccc3)NC(=O)[C@H](CCCNC(=N)N)NC(=O)[C@H](CCSC)NC(=O)CNC(=O)[C@H](C)NC(=O)[C@H](CCCCN)NC(=O)[C@H](Cc3cccc4ccccc34)NC(=O)[C@@H]3CSSC[C@@H](C(=O)N[C@H](C(=O)N4CCC[C@H]4C(=O)N[C@@H](CCCCN)C(=O)O)[C@@H](C)O)NC(=O)[C@H](Cc4c[nH]cn4)NC(=O)[C@H](CSSC[C@H](NC(=O)[C@H](CCC(N)=O)NC(=O)[C@H](CCCNC(=N)N)NC(=O)[C@H](CO)NC1=O)C(=O)N[C@@H](CC(C)C)C(=O)N[C@@H](CCC(=O)O)C(=O)N1CCC[C@H]1C(=O)N3)NC(=O)[C@H](CCCCN)NC(=O)CNC(=O)[C@H](CC(N)=O)NC(=O)[C@H](CCSC)NC2=O [K19Nal] (H-GVIINVKCKISRQCLEPC[1Nal]KAGMRFGKCMNGKCHCTPK-OH; disulfide 8-28, 14-33, 18-35) | 0.0172 nM | < 0.00152 nM |
| CC[C@H](C)[C@@H]1NC(=O)[C@H](CCCCN)NC(=O)[C@@H](NC(=O)[C@H](CCCCN)NC(=O)[C@@H](NC(=O)[C@H](CC(N)=O)NC(=O)[C@@H](NC(=O)[C@@H](NC(=O)[C@@H](NC(=O)CN)C(C)C)[C@@H](C)CC)[C@@H](C)CC)C(C)C)CSSC[C@@H]2NC(=O)[C@H](CCCCN)NC(=O)[C@H](Cc3cccc4ccccc34)NC(=O)[C@H](Cc3ccccc3)NC(=O)[C@H](CCCNC(=N)N)NC(=O)[C@H](CCSC)NC(=O)CNC(=O)[C@H](C)NC(=O)[C@H](CCCCN)NC(=O)[C@H](CCCCN)NC(=O)[C@@H]3CSSC[C@@H](C(=O)N[C@H](C(=O)N4CCC[C@H]4C(=O)N[C@@H](CCCCN)C(=O)O)[C@@H](C)O)NC(=O)[C@H](Cc4c[nH]cn4)NC(=O)[C@H](CSSC[C@H](NC(=O)[C@H](CCC(N)=O)NC(=O)[C@H](CCCNC(=N)N)NC(=O)[C@H](CO)NC1=O)C(=O)N[C@@H](CC(C)C)C(=O)N[C@@H](CCC(=O)O)C(=O)N1CCC[C@H]1C(=O)N3)NC(=O)[C@H](CCCCN)NC(=O)CNC(=O)[C@H](CC(N)=O)NC(=O)[C@H](CCSC)NC2=O [G26Nal] (H-GVIINVKCKISRQCLEPCKKAGMRF[1Nal]KCMNGKCHCTPK-OH; disulfide 8-28, 14-33, 18-35) | > 3.33 nM | 1.57 nM |
| CC[C@H](C)[C@@H]1NC(=O)[C@H](CCCCN)NC(=O)[C@@H](NC(=O)[C@H](CCCCN)NC(=O)[C@H](Cc2cccc3ccccc23)NC(=O)[C@H](CC(N)=O)NC(=O)[C@@H](NC(=O)[C@@H](NC(=O)[C@@H](NC(=O)CN)C(C)C)[C@@H](C)CC)[C@@H](C)CC)CSSC[C@@H]2NC(=O)[C@H](CCCCN)NC(=O)CNC(=O)[C@H](Cc3ccccc3)NC(=O)[C@H](CCCNC(=N)N)NC(=O)[C@H](CCSC)NC(=O)CNC(=O)[C@H](C)NC(=O)[C@H](CCCCN)NC(=O)[C@H](CCCCN)NC(=O)[C@@H]3CSSC[C@@H](C(=O)N[C@H](C(=O)N4CCC[C@H]4C(=O)N[C@@H](CCCCN)C(=O)O)[C@@H](C)O)NC(=O)[C@H](Cc4c[nH]cn4)NC(=O)[C@H](CSSC[C@H](NC(=O)[C@H](CCC(N)=O)NC(=O)[C@H](CCCNC(=N)N)NC(=O)[C@H](CO)NC1=O)C(=O)N[C@@H](CC(C)C)C(=O)N[C@@H](CCC(=O)O)C(=O)N1CCC[C@H]1C(=O)N3)NC(=O)[C@H](CCCCN)NC(=O)CNC(=O)[C@H](CC(N)=O)NC(=O)[C@H](CCSC)NC2=O [V6Nal] (H-GVIIN[1Nal]KCKISRQCLEPCKKAGMRFGKCMNGKCHCTPK-OH; disulfide 8-28, 14-33, 18-35) | 0.021 nM | < 0.00152 nM |
